Values of other authors as cited in patent publication US20130137766A1, “Compound Used to Prevent Diseases Caused by Aquaporin Deficiency” (FU-JEN CATHOLIC UNIVERSITY, priority 2010, published 2013).

Tested on: AQP-3
Conditions: EGF-treated groups

For “EGF: epidermal growth factor, literature comparator (Cong Cao et al.) (NSDSECPLSHDGYCLHDGVCMYIEALDKYACNCVVGYIGERCQYRDLKWWELR; UniProt P01133 971-1023, looked up)”, the “expression of AQP-3” value is given as “significantly increased” and the wound healing is given as “wound healing was facilitated”.
